Columns and labels:
Test in all cases: Test E pre-/postemergence greenhouse test, plant response rating 0-100
Type in all cases: in vivo
[1] = system: hairy beggarticks (Bidens pilosa); settings: scale 0 to 100; for Plant response rating, Beggarticks: Postemergence; for Beggarticks plant response rating: Preemergence
Outline: (§1)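 Visual control score, 0–100 relative to untreated plants, recorded 14–21 days after spraying. Treatments: preemergence on silt loam seedbeds and postemergence at the 1- to 4-leaf stage, with compound in surfactant-containing solvent.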

[2] = system: Italian ryegrass (Lolium multiflorum); settings: scale 0 to 100; for Plant response rating, Ryegrass, Italian: Postemergence; for Ryegrass, Italian plant response rating: Preemergence
Outline: as §1

[3] = system: palmer pigweed (Amaranthus palmeri); settings: scale 0 to 100; for Plant response rating, Pigweed, Palmer: Postemergence; for Pigweed, Palmer plant response rating: Preemergence
Outline: as §1

[4] = system: dayflower (Virginia (VA) dayflower, Commelina virginica); settings: scale 0 to 100; for Plant response rating, Dayflower, VA: Postemergence; for Dayflower, VA plant response rating: Preemergence
Outline: as §1

[5] = system: waterhemp (common waterhemp, Amaranthus rudis); settings: scale 0 to 100; for Plant response rating, Waterhemp: Postemergence; for Waterhemp plant response rating: Preemergence
Outline: as §1

corn (Zea mays) = settings: scale 0 to 100; for Plant response rating, Corn: Postemergence; for Corn plant response rating: Preemergence
Outline: as §1

[6] = system: sandbur (southern sandbur, Cenchrus echinatus); settings: scale 0 to 100; for Plant response rating, Sandbur: Postemergence; for Sandbur plant response rating: Preemergence
Outline: as §1

[7] = system: barnyardgrass (Echinochloa crus-galli); settings: scale 0 to 100; for Plant response rating, Barnyardgrass: Postemergence; for Barnyardgrass plant response rating: Preemergence
Outline: as §1

[8] = system: arrowleaf sida (Sida rhombifolia); settings: for Plant response rating, Arrowleaf Sida: Postemergence; for Arrowleaf Sida plant response rating: Preemergence
Outline: as §1

[9] = system: field bindweed (Convolvulus arvensis); settings: scale 0 to 100; for Plant response rating, Field Bindweed: Postemergence; for Field Bindweed plant response rating: Preemergence
Outline: as §1

[10] = system: Brazilian crabgrass (Digitaria horizontalis); settings: Postemergence, scale 0 to 100
Outline: as §1

[11] = system: wild poinsettia (Euphorbia heterophylla); settings: scale 0 to 100; for Plant response rating, Poinsettia, Wild: Postemergence; for Poinsettia, Wild plant response rating: Preemergence
Outline: as §1

O=C(c1ccccc1)c1cn(S(=O)(=O)CC(F)(F)F)nc1-c1cc(Cl)cc(Cl)c1 [Compound 3]
85: Waterhemp plant response rating ([5]; 250 g ai/ha) | Plant response rating, Arrowleaf Sida ([8]; 31 g ai/ha, scale 0 to 100)
60: Plant response rating, Beggarticks ([1]; 31 g ai/ha)
20: Pigweed, Palmer plant response rating ([3]; 62 g ai/ha)
95: Plant response rating, Beggarticks ([1]; 62 g ai/ha) | Plant response rating, Waterhemp ([5]; 31 g ai/ha) | Plant response rating, Arrowleaf Sida ([8]; 62 g ai/ha, scale 0 to 100) | Plant response rating, Arrowleaf Sida ([8]; 250 g ai/ha, scale 0 to 100)
100: Pigweed, Palmer plant response rating ([3]; 500 g ai/ha)
98: Plant response rating, Beggarticks ([1]; 125 g ai/ha) | Plant response rating, Beggarticks ([1]; 250 g ai/ha) | Plant response rating, Beggarticks ([1]; 500 g ai/ha) | Plant response rating, Waterhemp ([5]; 62 g ai/ha) | Plant response rating, Waterhemp ([5]; 125 g ai/ha) | Plant response rating, Waterhemp ([5]; 500 g ai/ha) | Waterhemp plant response rating ([5]; 500 g ai/ha) | Plant response rating, Arrowleaf Sida ([8]; 500 g ai/ha, scale 0 to 100 (0 no effect, 100 complete control)) | Arrowleaf Sida plant response rating ([8]; 500 g ai/ha, scale 0 to 100)
90: Plant response rating, Pigweed, Palmer ([3]; 250 g ai/ha) | Plant response rating, Waterhemp ([5]; 250 g ai/ha) | Sandbur plant response rating ([6]; 500 g ai/ha) | Plant response rating, Arrowleaf Sida ([8]; 125 g ai/ha, scale 0 to 100) | Arrowleaf Sida plant response rating ([8]; 250 g ai/ha, scale 0 to 100)
25: Beggarticks plant response rating ([1]; 125 g ai/ha) | Beggarticks plant response rating ([1]; 250 g ai/ha)
15: Sandbur plant response rating ([6]; 125 g ai/ha) | Sandbur plant response rating ([6]; 250 g ai/ha) | Plant response rating, Poinsettia, Wild ([11]; 250 g ai/ha)
30: Beggarticks plant response rating ([1]; 500 g ai/ha)
75: Plant response rating, Pigweed, Palmer ([3]; 125 g ai/ha) | Plant response rating, Pigweed, Palmer ([3]; 500 g ai/ha) | Waterhemp plant response rating ([5]; 125 g ai/ha)
40: Plant response rating, Pigweed, Palmer ([3]; 31 g ai/ha) | Arrowleaf Sida plant response rating ([8]; 62 g ai/ha, scale 0 to 100)
70: Arrowleaf Sida plant response rating ([8]; 125 g ai/ha, scale 0 to 100)
65: Pigweed, Palmer plant response rating ([3]; 125 g ai/ha) | Field Bindweed plant response rating ([9]; 500 g ai/ha)
50: Plant response rating, Pigweed, Palmer ([3]; 62 g ai/ha) | Pigweed, Palmer plant response rating ([3]; 250 g ai/ha) | Waterhemp plant response rating ([5]; 62 g ai/ha)
0: Beggarticks plant response rating ([1]; 31 g ai/ha) | Beggarticks plant response rating ([1]; 62 g ai/ha) | Plant response rating, Ryegrass, Italian ([2]; 31 g ai/ha) | Plant response rating, Ryegrass, Italian ([2]; 62 g ai/ha) | Plant response rating, Ryegrass, Italian ([2]; 125 g ai/ha) | Plant response rating, Ryegrass, Italian ([2]; 250 g ai/ha) | Plant response rating, Ryegrass, Italian ([2]; 500 g ai/ha) | Ryegrass, Italian plant response rating ([2]; 31 g ai/ha) | Ryegrass, Italian plant response rating ([2]; 62 g ai/ha) | Ryegrass, Italian plant response rating ([2]; 125 g ai/ha) | Ryegrass, Italian plant response rating ([2]; 250 g ai/ha) | Ryegrass, Italian plant response rating ([2]; 500 g ai/ha) | Pigweed, Palmer plant response rating ([3]; 31 g ai/ha) | Plant response rating, Dayflower, VA ([4]; 31 g ai/ha) | Plant response rating, Dayflower, VA ([4]; 62 g ai/ha) | Plant response rating, Dayflower, VA ([4]; 125 g ai/ha) | Plant response rating, Dayflower, VA ([4]; 250 g ai/ha) | Plant response rating, Dayflower, VA ([4]; 500 g ai/ha) | Dayflower, VA plant response rating ([4]; 125 g ai/ha) | Dayflower, VA plant response rating ([4]; 250 g ai/ha) | Dayflower, VA plant response rating ([4]; 500 g ai/ha) | Waterhemp plant response rating ([5]; 31 g ai/ha) | Plant response rating, Corn (corn (Zea mays); 31 g ai/ha) | Plant response rating, Corn (corn (Zea mays); 62 g ai/ha) | Plant response rating, Corn (corn (Zea mays); 125 g ai/ha) | Plant response rating, Corn (corn (Zea mays); 250 g ai/ha) | Plant response rating, Corn (corn (Zea mays); 500 g ai/ha) | Corn plant response rating (corn (Zea mays); 31 g ai/ha) | Corn plant response rating (corn (Zea mays); 62 g ai/ha) | Corn plant response rating (corn (Zea mays); 125 g ai/ha) | Corn plant response rating (corn (Zea mays); 250 g ai/ha) | Corn plant response rating (corn (Zea mays); 500 g ai/ha) | Plant response rating, Sandbur ([6]; 31 g ai/ha) | Plant response rating, Sandbur ([6]; 62 g ai/ha) | Plant response rating, Sandbur ([6]; 125 g ai/ha) | Plant response rating, Sandbur ([6]; 250 g ai/ha) | Plant response rating, Sandbur ([6]; 500 g ai/ha) | Sandbur plant response rating ([6]; 31 g ai/ha) | Sandbur plant response rating ([6]; 62 g ai/ha) | Plant response rating, Barnyardgrass ([7]; 31 g ai/ha) | Plant response rating, Barnyardgrass ([7]; 62 g ai/ha) | Plant response rating, Barnyardgrass ([7]; 125 g ai/ha) | Plant response rating, Barnyardgrass ([7]; 250 g ai/ha) | Plant response rating, Barnyardgrass ([7]; 500 g ai/ha) | Barnyardgrass plant response rating ([7]; 31 g ai/ha) | Barnyardgrass plant response rating ([7]; 62 g ai/ha) | Barnyardgrass plant response rating ([7]; 125 g ai/ha) | Barnyardgrass plant response rating ([7]; 250 g ai/ha) | Barnyardgrass plant response rating ([7]; 500 g ai/ha) | Arrowleaf Sida plant response rating ([8]; 31 g ai/ha, scale 0 to 100) | Plant response rating, Field Bindweed ([9]; 31 g ai/ha) | Plant response rating, Field Bindweed ([9]; 62 g ai/ha) | Plant response rating, Field Bindweed ([9]; 125 g ai/ha) | Plant response rating, Field Bindweed ([9]; 250 g ai/ha) | Plant response rating, Field Bindweed ([9]; 500 g ai/ha) | Field Bindweed plant response rating ([9]; 31 g ai/ha) | Field Bindweed plant response rating ([9]; 62 g ai/ha) | Field Bindweed plant response rating ([9]; 125 g ai/ha) | Field Bindweed plant response rating ([9]; 250 g ai/ha) | Plant response rating, Crabgrass, Brazil ([10]; 31 g ai/ha) | Plant response rating, Crabgrass, Brazil ([10]; 62 g ai/ha) | Plant response rating, Crabgrass, Brazil ([10]; 125 g ai/ha) | Plant response rating, Crabgrass, Brazil ([10]; 250 g ai/ha) | Plant response rating, Crabgrass, Brazil ([10]; 500 g ai/ha) | Plant response rating, Poinsettia, Wild ([11]; 31 g ai/ha) | Plant response rating, Poinsettia, Wild ([11]; 62 g ai/ha) | Plant response rating, Poinsettia, Wild ([11]; 125 g ai/ha) | Poinsettia, Wild plant response rating ([11]; 125 g ai/ha) | Poinsettia, Wild plant response rating ([11]; 250 g ai/ha) | Poinsettia, Wild plant response rating ([11]; 500 g ai/ha)
10: Plant response rating, Poinsettia, Wild ([11]; 500 g ai/ha)

From patent US10167262B2, “Herbicidal substituted 3-arylpyrazoles” (FMC CORPORATION, priority 2014, dated 2019)
